Data from US11419878B2, “Medicine obtained by combining FXR agonist and ARB” (Intercept Pharmaceuticals, Inc., priority 2016, dated 2022).

Experiments:
[1] = system: C57Bl/6J mice fed a CDAHFD; test: Murine NASH model (CDAHFD-fed mice), serum ALT activity; format: in vivo, mouse; details: obeticholic acid 10 mg/kg/day and/or losartan 30 mg/kg/day oral, 3 weeks from 6 weeks of diet
Excerpt: According to the NASH/NAFLD Practice Guideline of 2015 (Japan Society of Hepatology, NASH/NAFLD Practice Guideline 2015. Tokyo: Bunkodo; 2015.), the important factors in NASH diagnostic screening are an abdominal ultrasound diagnosis of fatty liver and abnormal ALT (alanine aminotransferase) values. The diagnosis of NASH is confirmed by liver biopsy, with control of obesity/hypertension/lipid abnormalities being one of the basic criteria, and continuing high values for transaminases (aminotransferases) are also significant. […] Aliment Pharmacol Ther. 2013 Jul. 38 (2): 134-43). Based on the above findings, as ALT is considered an important prognostic factor in the progression of NASH, treatment to improve ALT levels is expected to alleviate the pathology of NASH. For this reason, evaluation was conducted using the animal model of reduction of ALT below, and the effects of monotherapy and combined administration of an FXR agonist (obeticholic acid) and an ARB (losartan) were studied.
The same method was used as in working example 7.
Male C57Bl/6J mice (n=50) […]
In order to evaluate serum alanine aminotransferase (ALT) activity, blood samples were taken from mice that had completed the above-mentioned testing, and the serum was separated. Using a pharmaceutical product for in vitro diagnosis, ALT activity in the serum samples was enzymatically measured.

[2] = system: C57Bl/6J mice fed a choline-deficient, amino acid-defined, high-fat diet (CDAHFD); test: Murine NASH model (CDAHFD-fed mice), H&E histology: liver cell swelling, fatty degeneration, NAS; format: in vivo, mouse; details: obeticholic acid 30 mg/kg/day and/or losartan 30 mg/kg/day oral, 3 weeks from 2.5 weeks of diet
Excerpt: The accepted pathological diagnostic criterion for NASH is “observation of liver cell ballooning accompanied by inflammation in addition to large-droplet hepatic steatosis.” Matteoni et al. conducted a long-term follow-up study of patients with NAFLD, classifying the disease based on pathology findings into 4 types (type 1: fatty liver alone, type 2: fat accumulation plus inflammatory cell infiltration, type 3: fat accumulation plus ballooning hepatocyte degeneration, type 4: fat accumulation/ballooning hepatocyte degeneration plus Mallory-Denk bodies or fibrosis). […] In order to reduce differences among individual observers and institutions, the Nonalcoholic Steatohepatitis Clinical Research Network has proposed a pathodiagnostic scoring system in which the extent of fatty degeneration, inflammation, and hepatocyte ballooning is scored (NAS: NAFLD Activity Score) (Matteoni C A, Younossi Z M, Gramlich T, Boparai N, Liu Y C, McCullough A J: Nonalcoholic fatty liver disease: A spectrum of clinical and pathological severity. Gastroenterology, 116; 1413-1419, 1999). The pathodiagnostic standards making up the NASH score were evaluated using the following animal model, and the individual and combined effects of an FXR agonist (obeticholic acid) and an ARB (losartan) were studied. […]

CCCCc1nc(Cl)c(CO)n1Cc1ccc(-c2ccccc2-c2nn[nH]n2)cc1 [losartan]
improvement in serum ALT activity versus the positive control group [1]: only an improving trend | liver cell swelling (positive area rate, improvement) [2]: no improving tendency whatsoever

CC[C@H]1[C@@H](O)[C@@H]2[C@H](CC[C@]3(C)[C@@H]([C@H](C)CCC(=O)O)CC[C@@H]23)[C@@]2(C)CC[C@@H](O)C[C@@H]12 [obeticholic acid, 3α,7α-dihydroxy-6α-ethyl-5β-cholan-24-oic acid]
improvement in serum ALT activity versus the positive control group [1]: only an improving trend | liver cell swelling (positive area rate, improvement) [2]: tended to be inhibited
